The values below come from article PMC10819888, “Benzimidazole-Based Derivatives as Apoptotic Antiproliferative Agents: Design, Synthesis, Docking, and Mechanistic Studies” (Molecules, 2024).

Each structure is given as a SMILES string.

`CCn1c(-c2ccc3[nH]c(-c4ccc(Cl)cc4)nc3c2)n[nH]c1=S` [Compound 6, 4-ethyl-5-(2-(4-chlorophenyl)-1H-benzimidazol-5-yl)-2,4-dihydro-3H-1,2,4triazole-3-thione] registered a melting point of 292 to 294 °C. Regarding `CN(C)c1ccc(C=NNC(=O)c2ccc3[nH]c(-c4ccc(Cl)cc4)nc3c2)cc1` [Compound 4b, N′-(4-(Dimethylamino)benzylidene)-2-(4-chlorophenyl)-1H-benzimidazole-5-carbohydrazide], the melting point was 283 to 285 °C. As for `O=C(NN=Cc1ccc(Cl)cc1Cl)c1ccc2[nH]c(-c3ccc(Cl)cc3)nc2c1` [Compound 4f, N′-(2,4-Dichlorobenzylidene)-2-(4-chlorophenyl)-1H-benzimidazole-5-carbohydrazide], the melting point was in the range of 294 to 297 °C.

Turning to `O=C(N/N=C/c1ccc(O)cc1)c1ccc2[nH]c(-c3ccc(Cl)cc3)nc2c1` [Compound 4i, N′-(4-Hydroxybenzylidene)-2-(4-chlorophenyl)-1H-benzimidazole-5-carbohydrazide], the melting point was 263 to 265 °C. In turn, `O=C(NN=Cc1ccc(F)cc1)c1ccc2[nH]c(-c3ccc(Cl)cc3)nc2c1` [Compound 4d, N′-(4-Fluorobenzylidene)-2-(4-chlorophenyl)-1H-benzimidazole-5-carbohydrazide] registered a melting point of 285 to 287 °C.

Broadly, the melting point is the temperature of the solid-liquid transition.
